Measured values taken from ChEMBL document CHEMBL4316608, “Artemisinin-indole and artemisinin-imidazole hybrids: Synthesis, cytotoxic evaluation and reversal effects on multidrug resistance in MCF-7/ADR cells” (Bioorg Med Chem Lett, 2019).
Where a name gives a salt, the structure may show the parent alone.

How the values were obtained:
[1] = system: A549; experiment: Antiproliferative activity against human A549 cells measured after 48 hrs by MTT assay; assay type: functional, cell-based; conditions: A549, 48 h
[2] = system: HepG2; experiment: Antiproliferative activity against human HepG2 cells measured after 48 hrs by MTT assay; assay type: functional, cell-based; conditions: HepG2, 48 h
[3] = system: MDA-MB-231; experiment: Antiproliferative activity against human MDA-MB-231 cells measured after 48 hrs by MTT assay; assay type: functional, cell-based; conditions: MDA-MB-231, 48 h
[4] = system: L02; experiment: Cytotoxicity against human L02 cells measured after 48 hrs by MTT assay; assay type: cell-based; conditions: L02, 48 h
[5] = system: MCF7; experiment: Antiproliferative activity against human MCF7 cells measured after 48 hrs by MTT assay; assay type: functional, cell-based; conditions: MCF7, 48 h
[6] = Toxicity in human MCF7 cells assessed as inhibition of cell proliferation at 5 uM measured after 48 hrs by MTT assay; assay type: cell-based
[7] = system: NCI/ADR-RES; experiment: Potentiation of adriamycin-induced antiproliferative activity against human MCF7/ADR cells assessed as fold reduction in adriamycin IC50 at 5 uM measured after 48 hrs by MTT assay; assay type: functional
[8] = system: CCRF-CEM; experiment: Cytotoxicity against human CCRF-CEM cells by XTT assay; assay type: functional, cell-based
[9] = system: ADR5000 cell line; experiment: Cytotoxicity against human CEM/ADR5000 cells by XTT assay; assay type: functional, cell-based
[10] = system: MCF7; experiment: Cell cycle arrest in human MCF7 cells assessed as accumulation at G1 phase at 2.5 uM measured after 48 hrs by propidium iodide staining based flow cytometry (reference value: 52.44%); assay type: functional
[11] = system: MCF7; experiment: Cell cycle arrest in human MCF7 cells assessed as accumulation at G1 phase at 10 uM measured after 48 hrs by propidium iodide staining based flow cytometry (reference value: 52.44%); assay type: functional
[12] = system: MCF7; experiment: Cell cycle arrest in human MCF7 cells assessed as accumulation at S phase at 2.5 uM measured after 48 hrs by propidium iodide staining based flow cytometry (reference value: 24.31%); assay type: functional
[13] = system: MCF7; experiment: Cell cycle arrest in human MCF7 cells assessed as accumulation at S phase at 10 uM measured after 48 hrs by propidium iodide staining based flow cytometry (reference value: 24.31%); assay type: functional
[14] = system: MCF7; experiment: Cell cycle arrest in human MCF7 cells assessed as accumulation at S phase at 5 uM measured after 48 hrs by propidium iodide staining based flow cytometry (reference value: 24.31%); assay type: functional
[15] = system: MCF7; experiment: Potency index, ratio of artemisinin IC50 to test compound IC50 for human MCF7 cells; assay type: functional
[16] = system: MCF7; experiment: Cell cycle arrest in human MCF7 cells assessed as accumulation at G2 phase at 5 uM measured after 48 hrs by propidium iodide staining based flow cytometry (reference value: 23.25%); assay type: functional
[17] = system: MCF7; experiment: Cell cycle arrest in human MCF7 cells assessed as accumulation at G2 phase at 10 uM measured after 48 hrs by propidium iodide staining based flow cytometry (reference value: 23.25%); assay type: functional
[18] = system: MCF7; experiment: Cell cycle arrest in human MCF7 cells assessed as accumulation at G2 phase at 2.5 uM measured after 48 hrs by propidium iodide staining based flow cytometry (reference value: 23.25%); assay type: functional
[19] = system: MCF7; experiment: Cell cycle arrest in human MCF7 cells assessed as accumulation at G1 phase at 5 uM measured after 48 hrs by propidium iodide staining based flow cytometry (reference value: 52.44%); assay type: functional

| SMILES | IC50 [1] [µM] | IC50 [2] [µM] | IC50 [3] [µM] | IC50 [4] [µM] | IC50 [5] [µM] | inhibition at 48 h, 5 µM [6] [%] | fold change (FC) [7] | further results |
| --- | --- | --- | --- | --- | --- | --- | --- | --- |
| C[C@H]1[C@H](OC(=O)CCC(=O)O)O[C@@H]2O[C@@]3(C)CC[C@H]4[C@H](C)CC[C@@H]1[C@@]24OO3 [ARTESUNATE] | 50.7 | 39.9 | 75.7 | 72.2 | 38.7 |  |  |  |
| C[C@H]1[C@H](OC(=O)CCC(=O)OCCCn2cc(C#N)nc2Cl)O[C@@H]2O[C@@]3(C)CC[C@H]4[C@H](C)CC[C@@H]1[C@@]24OO3 | 19.6 | > 50 | > 100 | 72.8 | 13.8 | 12.8 | 8.51 |  |
| C[C@@H]1CC[C@@H]2[C@]34OO[C@](C)(CC[C@@H]13)O[C@H]4OC[C@]2(C)O |  |  |  |  |  |  |  | IC50 [8]: 156 µM; IC50 [9]: 90 µM |
| C[C@H]1[C@H](OC(=O)CCC(=O)OCCn2ccnc2[N+](=O)[O-])O[C@@H]2O[C@@]3(C)CC[C@H]4[C@H](C)CC[C@@H]1[C@@]24OO3 | 14 | 23.7 | 39.4 | 50.2 | 16.4 | 13.5 | 27.09 |  |
| C[C@H]1[C@H](OC(=O)CCC(=O)OCCn2cc(C#N)nc2Cl)O[C@@H]2O[C@@]3(C)CC[C@H]4[C@H](C)CC[C@@H]1[C@@]24OO3 | 20.7 | 44.3 | 66.4 | 61.2 | 17.5 | 21.3 | 9.24 |  |
| C[C@H]1[C@H](OC(=O)CCC(=O)OCCCCn2ccnc2[N+](=O)[O-])O[C@@H]2O[C@@]3(C)CC[C@H]4[C@H](C)CC[C@@H]1[C@@]24OO3 | 16.5 | 21.2 | 85.2 | 45.7 | 9.78 | 19.8 | 14.71 |  |
| C[C@@H]1CC[C@H]2[C@@H](C)C(OC(=O)/C=C/c3cc4ccccc4[nH]3)O[C@@H]3O[C@@]4(C)CC[C@@H]1[C@]32OO4 (stereo not given in full) | > 50 | > 50 | > 100 | > 100 | > 50 | 5.38 | 61.05 |  |
| C[C@H]1[C@H](OC(=O)CCC(=O)OCCCCn2cnc(C#N)c2C#N)O[C@@H]2O[C@@]3(C)CC[C@H]4[C@H](C)CC[C@@H]1[C@@]24OO3 | 17.9 | 32.3 | 50.8 | 42.9 | 15.2 | 11.2 | 4.1 |  |
| C[C@H]1[C@H](OC(=O)CCC(=O)OCCn2cnc(C#N)c2C#N)O[C@@H]2O[C@@]3(C)CC[C@H]4[C@H](C)CC[C@@H]1[C@@]24OO3 | 12.4 | 25.6 | > 100 | 49.1 | 10.8 | 13.7 | 5.41 |  |
| C[C@@H]1CC[C@H]2[C@@H](C)C(OC(=O)c3c[nH]c4ccc(Cl)cc34)O[C@@H]3O[C@@]4(C)CC[C@@H]1[C@]32OO4 (stereo not given in full) | 6.17 | 10.8 | > 100 | 31 | 5.25 | 32.1 | 117 | Activity [10]: 48.36%; Activity [11]: 39.61%; Activity [12]: 24.24%; Activity [13]: 21.41%; Activity [14]: 21.89%; Ratio IC50 [15]: 10; Activity [16]: 34.35%; Activity [17]: 38.97%; Activity [18]: 27.4%; Activity [19]: 43.76% |
| C[C@H]1[C@H](OC(=O)CCC(=O)OCCn2cnc(Br)c2)O[C@@H]2O[C@@]3(C)CC[C@H]4[C@H](C)CC[C@@H]1[C@@]24OO3 | 24.7 | 31.9 | > 100 | 66.9 | 13.1 | 12.4 | 6.37 |  |
| C[C@H]1[C@H](OC(=O)CCC(=O)OCCCCn2cnc([N+](=O)[O-])c2)O[C@@H]2O[C@@]3(C)CC[C@H]4[C@H](C)CC[C@@H]1[C@@]24OO3 | 25.8 | 30.2 | 57 | 77.5 | 15.4 | 20.2 | 26.06 |  |
| C[C@H]1[C@H](OC(=O)CCC(=O)OCCCn2cnc(C#N)c2C#N)O[C@@H]2O[C@@]3(C)CC[C@H]4[C@H](C)CC[C@@H]1[C@@]24OO3 | 26.7 | > 50 | 93.2 | 66.2 | 16.2 | 15 | 4.37 |  |
| C[C@H]1[C@H](OC(=O)CCC(=O)OCCCn2cnc(Br)c2)O[C@@H]2O[C@@]3(C)CC[C@H]4[C@H](C)CC[C@@H]1[C@@]24OO3 | 26 | 41.6 | 80.9 | > 100 | 12.4 | 23.2 | 5.6 |  |
| C[C@H]1[C@H](OC(=O)CCC(=O)OCCCn2cnc([N+](=O)[O-])c2)O[C@@H]2O[C@@]3(C)CC[C@H]4[C@H](C)CC[C@@H]1[C@@]24OO3 | 20 | 33.3 | 80.9 | 34.3 | 12.7 | 22.3 | 15.72 |  |
| C[C@@H]1CC[C@H]2[C@@H](C)C(=O)O[C@@H]3O[C@@]4(C)CC[C@@H]1[C@]32OO4 [ARTEMISININ] | > 50 | > 50 | > 100 | > 100 | > 50 |  |  |  |
| COc1cccc2c1C(=O)c1c(O)c3c(c(O)c1C2=O)C[C@@](O)(C(=O)CO)C[C@@H]3O[C@H]1C[C@H](N)[C@H](O)[C@H](C)O1 [DOXORUBICIN HYDROCHLORIDE] | 1.13 |  |  | 0.79 |  |  |  |  |
| COc1ccc2[nH]cc(C(=O)OC3O[C@@H]4O[C@@]5(C)CC[C@H]6[C@H](C)CC[C@@H]([C@H]3C)[C@@]46OO5)c2c1 (stereo not given in full) | 13.4 | 27.7 | 70.4 | 36.4 | 14.5 | 19.8 | 71.89 |  |
| C[C@H]1[C@@H](O)O[C@@H]2O[C@@]3(C)CC[C@H]4[C@H](C)CC[C@@H]1[C@@]24OO3 [ARTENIMOL] | 45.3 | 31.7 | 58.7 | 40.2 | 34.3 |  |  | IC50 [8]: 0.87 µM; IC50 [9]: 1.84 µM |
| C[C@H]1[C@H](OC(=O)CCC(=O)OCCn2cnc([N+](=O)[O-])c2)O[C@@H]2O[C@@]3(C)CC[C@H]4[C@H](C)CC[C@@H]1[C@@]24OO3 | 12.7 | 34.9 | 82.3 | 56.2 | 14 | 7.78 | 43.48 |  |
| C[C@@H]1CC[C@H]2[C@@H](C)C(OC(=O)c3c[nH]c4ccccc34)O[C@@H]3O[C@@]4(C)CC[C@@H]1[C@]32OO4 (stereo not given in full) | 12.9 | 15.2 | 58.9 | 42.6 | 6.78 | 18.9 | 95.85 |  |
| C[C@H]1[C@H](OC(=O)CCC(=O)OCCCn2ccnc2[N+](=O)[O-])O[C@@H]2O[C@@]3(C)CC[C@H]4[C@H](C)CC[C@@H]1[C@@]24OO3 | 20.9 | 39.3 | > 100 | 46.4 | 12.9 | 22.3 | 16.69 |  |
| C[C@H]1[C@H](OC(=O)CCC(=O)OCCCCn2cc(C#N)nc2Cl)O[C@@H]2O[C@@]3(C)CC[C@H]4[C@H](C)CC[C@@H]1[C@@]24OO3 | 23.3 | 40.2 | > 100 | 52.3 | 13.6 | 16.6 | 11.17 |  |
| C[C@H]1[C@H](OC(=O)CCC(=O)OCCCCn2cnc(Br)c2)O[C@@H]2O[C@@]3(C)CC[C@H]4[C@H](C)CC[C@@H]1[C@@]24OO3 | 18.9 | 35.9 | > 100 | 41.3 | 11.6 | 8.95 | 5.56 |  |
| COc1ccc(CCN(C)CCCC(C#N)(c2ccc(OC)c(OC)c2)C(C)C)cc1OC (stereo not given) |  |  |  |  |  |  | 39.62 |  |
